Measured values reported in the NIST ThermoML archive (doi:10.1016/j.jct.2015.11.021).
Numbers after ± are expanded uncertainties.

Settings: Liquid, Closed cell (Static) method

Row | vapor or sublimation pressure (303.15 K) [kPa] | vapor or sublimation pressure (323.15 K) [kPa] | vapor or sublimation pressure (343.15 K) [kPa] | vapor or sublimation pressure (363.15 K) [kPa] | vapor or sublimation pressure (373.15 K) [kPa] | Compound
1 | 177.8 ± 1.1 | 344.7 ± 1.2 | 610.2 ± 1.5 | 1006.7 ± 2 | 1266.2 ± 2.4 | FC(F)CC(F)(F)F [1,1,1,3,3-pentafluoropropane]
2 | 283.7 ± 1.1 | 496.2 ± 1.2 | 809.8 ± 1.5 | 1249.8 ± 2.1 | 1526.8 ± 2.4 | CCCC [butane]
